What all share (assay): relative viability (nuclei count vs DMSO), 5 days (fraction); higher = more cells survive
Compound in assay [1]: CC1=C(C(=NN1)C)CC2=C(C3=C(S2)N(C(=O)N(C3=O)C)CC(C)C)C(=O)N4C[C@@H](CO4)O + CC(C)C[C@H](NC(=O)[C@H](Cc1ccccc1)NC(=O)c1cnccn1)B(O)O [Bortezomib] (partner 0.002 µM)
An outline of the steps: (§1)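 Cells from lung cancer lines were seeded into 1536-well plates and, one day later, dosed by pin tool. Treatments were either a single drug or a fixed dose of an anchor drug with five library-drug doses (not always all listed) in √10 steps. After 5 days, nuclei were stained in a one-step fixation (final 0.05% Triton X-100, 1% formaldehyde, 1 ug/ml Hoechst) and counted on 4× images, and relative viability is the treated-to-vehicle nuclei ratio, as the median of duplicate plates.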

Compound in assay [2]: CC1=C(C(=NN1)C)CC2=C(C3=C(S2)N(C(=O)N(C3=O)C)CC(C)C)C(=O)N4C[C@@H](CO4)O + CS(=O)(=O)N1CCN(Cc2cc3nc(-c4cccc5[nH]ncc45)nc(N4CCOCC4)c3s2)CC1 [Pictilisib] (partner 1 µM)
An outline of the steps: as §1

Compound in assay [3]: CC1=C(C(=NN1)C)CC2=C(C3=C(S2)N(C(=O)N(C3=O)C)CC(C)C)C(=O)N4C[C@@H](CO4)O + O=C(c1cc(Cc2n[nH]c(=O)c3ccccc23)ccc1F)N1CCN(C(=O)C2CC2)CC1 [Olaparib] (partner 8 µM)
An outline of the steps: as §1

Compound in the assay “IDH-C35 + Dasatinib”: Cc1ccccc1C(C(=O)NC1CCCCC1)N(C(=O)Cn1ccnc1C)c1cccc(F)c1 [IDH-C35] + Cc1nc(Nc2ncc(C(=O)Nc3c(C)cccc3Cl)s2)cc(N2CCN(CCO)CC2)n1 [Dasatinib] (partner 0.075 µM)
Summed up:
as §1

Turning to 201T, the relative viability is 1.15 in assay [1] (first compound 0.0025 µM); 1.07 in assay [1] (first compound 0.007906 µM); 1.03 in assay [1] (first compound 0.025 µM); 1.06 in assay [1] (first compound 0.07906 µM); 1.12 in assay [1] (first compound 0.25 µM); 0.708 in assay [2] (first compound 0.0025 µM). The relative viability in assay [2] (first compound 0.007906 µM) was 0.704; in assay [2] (first compound 0.025 µM), 0.688; in assay [2] (first compound 0.07906 µM), 0.653; in assay [2] (first compound 0.25 µM), 0.679; in assay [3] (first compound 0.0025 µM) it was 0.852; in assay [3] (first compound 0.007906 µM) it was 0.815. For the same cell line, the relative viability turned out to be 0.828 in assay [3] (first compound 0.025 µM); 0.845 in assay [3] (first compound 0.07906 µM); 0.853 in assay [3] (first compound 0.25 µM); 0.575 with IDH-C35 + Dasatinib (first compound 0.08 µM); 0.569 in the assay with IDH-C35 + Dasatinib (first compound 0.253 µM); 0.607 in the assay with IDH-C35 + Dasatinib (first compound 0.8 µM). Moreover, the values for the relative viability in the assay with IDH-C35 + Dasatinib (first compound 2.53 µM) and in the assay with IDH-C35 + Dasatinib (first compound 8 µM) were 0.582 and 0.529, respectively.
On to A549, for which the relative viability in assay [2] (first compound 0.0025 µM) turned out to be 0.391; in assay [2] (first compound 0.007906 µM), 0.505; in assay [2] (first compound 0.025 µM) it was 0.538; in assay [2] (first compound 0.07906 µM) it was 0.52; in assay [2] (first compound 0.25 µM) it was 0.54; in assay [3] (first compound 0.0025 µM), 0.322. The relative viability amounted to 0.391 in assay [3] (first compound 0.007906 µM), 0.355 in assay [3] (first compound 0.025 µM), 0.358 in assay [3] (first compound 0.07906 µM) and 0.4 in assay [3] (first compound 0.25 µM).
As for A-427, the relative viability in assay [1] (first compound 0.0025 µM) is 0.945; in assay [1] (first compound 0.007906 µM), 1; in assay [1] (first compound 0.025 µM), 1.03; in assay [1] (first compound 0.07906 µM) it was 0.975; in assay [1] (first compound 0.25 µM) it was 0.944; in assay [2] (first compound 0.0025 µM), 0.733. In addition, the relative viability is 0.685 in assay [2] (first compound 0.007906 µM); 0.679 in assay [2] (first compound 0.025 µM); 0.843 in assay [2] (first compound 0.07906 µM); 0.826 in assay [2] (first compound 0.25 µM); 0.762 in assay [3] (first compound 0.0025 µM); 0.769 in assay [3] (first compound 0.007906 µM). For the same cell line, the relative viability amounted to 0.706 in assay [3] (first compound 0.025 µM); 0.729 in assay [3] (first compound 0.07906 µM); 0.886 in assay [3] (first compound 0.25 µM); 0.738 in the assay with IDH-C35 + Dasatinib (first compound 0.08 µM); 0.636 with IDH-C35 + Dasatinib (first compound 0.253 µM); 0.685 in the assay with IDH-C35 + Dasatinib (first compound 0.8 µM). For the same cell line, the relative viability in the assay with IDH-C35 + Dasatinib (first compound 2.53 µM) came out at 0.702; with IDH-C35 + Dasatinib (first compound 8 µM), 0.658.
ABC-1: the relative viability came to 0.342 in assay [1] (first compound 0.0025 µM); 0.304 in assay [1] (first compound 0.007906 µM); 0.304 in assay [1] (first compound 0.025 µM); 0.394 in assay [1] (first compound 0.07906 µM); 0.335 in assay [1] (first compound 0.25 µM); 0.874 in assay [2] (first compound 0.0025 µM). Moreover, the relative viability in assay [2] (first compound 0.007906 µM) worked out at 0.844; in assay [2] (first compound 0.025 µM), 0.693; in assay [2] (first compound 0.07906 µM) it was 0.948; in assay [2] (first compound 0.25 µM), 0.737; in assay [3] (first compound 0.0025 µM), 0.487; in assay [3] (first compound 0.007906 µM), 0.519. The relative viability in assay [3] (first compound 0.07906 µM) was determined as 0.485; in assay [3] (first compound 0.25 µM), 0.517; with IDH-C35 + Dasatinib (first compound 0.08 µM), 0.583; in the assay with IDH-C35 + Dasatinib (first compound 0.253 µM) it was 0.58; in the assay with IDH-C35 + Dasatinib (first compound 0.8 µM), 0.485; with IDH-C35 + Dasatinib (first compound 2.53 µM), 0.476. Further, in the assay with IDH-C35 + Dasatinib (first compound 8 µM), the relative viability stood at 0.631.
As to BEN, the relative viability turned out to be 0.772 in assay [1] (first compound 0.0025 µM); 0.74 in assay [1] (first compound 0.007906 µM); 0.532 in assay [1] (first compound 0.025 µM); 0.675 in assay [1] (first compound 0.07906 µM); 0.665 in assay [1] (first compound 0.25 µM); 0.557 in assay [2] (first compound 0.0025 µM). Also, the relative viability came out at 0.512 in assay [2] (first compound 0.007906 µM); 0.435 in assay [2] (first compound 0.025 µM); 0.593 in assay [2] (first compound 0.07906 µM); 0.556 in assay [2] (first compound 0.25 µM); 0.868 in assay [3] (first compound 0.0025 µM); 0.709 in assay [3] (first compound 0.007906 µM). Moreover, the relative viability in assay [3] (first compound 0.025 µM) stood at 0.684; in assay [3] (first compound 0.07906 µM), 0.806; in assay [3] (first compound 0.25 µM) it was 0.712; with IDH-C35 + Dasatinib (first compound 0.08 µM), 0.308; with IDH-C35 + Dasatinib (first compound 0.253 µM), 0.373; with IDH-C35 + Dasatinib (first compound 0.8 µM) it was 0.289. Moreover, the results for the relative viability with IDH-C35 + Dasatinib (first compound 2.53 µM) and in the assay with IDH-C35 + Dasatinib (first compound 8 µM) were 0.333 and 0.293, respectively.
Regarding CAL-12T, the relative viability in assay [1] (first compound 0.0025 µM) came out at 1.07; in assay [1] (first compound 0.007906 µM) it was 0.978; in assay [1] (first compound 0.07906 µM) it was 0.891; in assay [1] (first compound 0.25 µM), 0.926; in assay [2] (first compound 0.0025 µM) it was 0.502; in assay [2] (first compound 0.007906 µM), 0.57. Moreover, the relative viability was found to be 0.588 in assay [2] (first compound 0.07906 µM); 0.518 in assay [2] (first compound 0.25 µM); 0.732 in assay [3] (first compound 0.0025 µM); 0.704 in assay [3] (first compound 0.007906 µM); 0.67 in assay [3] (first compound 0.025 µM); 0.755 in assay [3] (first compound 0.07906 µM). Further, the relative viability in assay [3] (first compound 0.25 µM) came to 0.772; with IDH-C35 + Dasatinib (first compound 0.08 µM), 0.39; with IDH-C35 + Dasatinib (first compound 0.253 µM), 0.613; with IDH-C35 + Dasatinib (first compound 0.8 µM), 0.411; in the assay with IDH-C35 + Dasatinib (first compound 2.53 µM), 0.496; with IDH-C35 + Dasatinib (first compound 8 µM), 0.396.
For COR-L23, the relative viability came out at 1.07 in assay [1] (first compound 0.0025 µM); 0.895 in assay [1] (first compound 0.007906 µM); 0.888 in assay [1] (first compound 0.025 µM); 0.754 in assay [1] (first compound 0.07906 µM); 0.865 in assay [1] (first compound 0.25 µM); 0.806 in assay [2] (first compound 0.0025 µM). Further, the relative viability turned out to be 0.794 in assay [2] (first compound 0.007906 µM); 0.522 in assay [2] (first compound 0.025 µM); 0.589 in assay [2] (first compound 0.07906 µM); 0.635 in assay [2] (first compound 0.25 µM); 0.404 in assay [3] (first compound 0.0025 µM); 0.33 in assay [3] (first compound 0.007906 µM). Further, the relative viability in assay [3] (first compound 0.025 µM) is 0.298; in assay [3] (first compound 0.07906 µM), 0.328; in assay [3] (first compound 0.25 µM), 0.325; in the assay with IDH-C35 + Dasatinib (first compound 0.08 µM), 0.479; in the assay with IDH-C35 + Dasatinib (first compound 0.253 µM) it was 0.438; with IDH-C35 + Dasatinib (first compound 0.8 µM), 0.48. Besides, the results for the relative viability in the assay with IDH-C35 + Dasatinib (first compound 2.53 µM) and with IDH-C35 + Dasatinib (first compound 8 µM) were 0.443 and 0.445, respectively.

(Values after the supplement of paper PMC10307832.)
